Consider eight compounds from ChEMBL document CHEMBL1201862, “PubChem BioAssay data set” (2004).

A short description of data set [1]: Luminescence Cell-Based Dose Confirmation HTS to Identify Activators of 5'UTR Stem-Loop Driven Alpha-Synuclein mRNA Translation in H4 Neuroglioblastoma Cells. [Related pubchem assays: 1829 (Project Summary), 1814 (Primary HTS)]. Format: functional.
Data set [2] is described as follows: Luminescence Cell-Based Dose Response HTS to Identify Activators of Luciferase Translation or Activity in H4 […] Cells. [Related pubchem assays: 1829 (Project Summary), 1814 (Primary HTS)]. Format: functional.
Another data set relates to H4. As to the kind of experiment: Luminescence Cell-Based Dose Response HTS to Identify Activators of 5'UTR Stem-Loop Driven Prion Protein mRNA Translation in H4 Neuroglioblastoma Cells. [Related pubchem assays: 1829 (Project Summary), 1814 (Primary HTS)]. Format: functional. The conditions noted are these: Homo sapiens.
The subject of another data set is HeLa. As to the kind of experiment: ATP-based viability loss in HeLa cells – cell-based, CellTiter-Glo luminescence, cherry-pick samples, cytotoxicity control for MITF activator project, dose response (AID 540259). The conditions noted are these: Homo sapiens. Format: functional. In general terms: ATP-based viability assays read luminescence as a measure of living cells.

For another data set, the target named is Cytochrome P450 2C19 (Homo sapiens, UniProt P33261). Description: Cytochrome panel assay with activity outcomes. Panel member name: p450-cyp2c19 Compounds with AC50 equal or less than 10 uM are considered active. Format: functional.
Another data set addresses Cytochrome P450 3A4 (Homo sapiens, UniProt P08684).
The target in the next data set is Cytochrome P450 2D6 (Homo sapiens, UniProt P10635).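 Further: CYP2D6 member of a cytochrome P450 panel assay.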
The target in the next data set is T1, Cytochrome P450 1A2 (Homo sapiens, UniProt P05177).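 Further: PubChem cytochrome P450 panel assay, CYP1A2 panel member.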
T1 sequence (P05177 whole entry): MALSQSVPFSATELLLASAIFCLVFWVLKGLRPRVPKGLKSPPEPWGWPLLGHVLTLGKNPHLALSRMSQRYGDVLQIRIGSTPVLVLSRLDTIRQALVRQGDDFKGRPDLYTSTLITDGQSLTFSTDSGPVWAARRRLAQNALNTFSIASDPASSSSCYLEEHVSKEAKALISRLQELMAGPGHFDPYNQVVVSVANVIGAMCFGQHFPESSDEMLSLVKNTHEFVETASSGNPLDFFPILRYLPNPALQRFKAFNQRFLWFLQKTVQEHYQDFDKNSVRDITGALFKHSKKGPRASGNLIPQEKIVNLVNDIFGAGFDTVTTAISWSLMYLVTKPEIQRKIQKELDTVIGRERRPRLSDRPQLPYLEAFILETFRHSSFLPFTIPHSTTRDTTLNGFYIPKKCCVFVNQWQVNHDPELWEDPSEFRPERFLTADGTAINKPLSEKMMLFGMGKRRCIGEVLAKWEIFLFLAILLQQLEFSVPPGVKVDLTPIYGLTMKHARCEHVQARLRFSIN

Another data set concerns the target Cytochrome P450 2C9 (Homo sapiens, UniProt P11712).
The target of a further data set is CAAX prenyl protease 2 (Homo sapiens, UniProt Q9Y256). As to the kind of experiment: inhibition of Ras-converting CAAX protease Rce1 – biochemical, yeast membranes, quenched-peptide fluorescence, cherry-pick, dose response (AID 588849).
Data set [3] relates to INS1. As to the kind of experiment: beta-cell survival under cytokine stress – INS-1E, ATP luminescence, dry powder, dose response (AID 488844). The conditions noted are these: Rattus norvegicus. Format: functional, cell-based.
Data set [4] has as its system INS1. Description: suppression of cytokine-induced beta-cell apoptosis – INS-1E, caspase luminescence, dry powder, beta-cell apoptosis inhibitor project, dose response (AID 488848). Format: functional, cell-based. The conditions noted are these: Rattus norvegicus.
Data set [5] concerns INS1. Description: INS-1E mitochondrial potential rescue under cytokines – cell-based, JC-1 fluorescence ratio, dry powder, dose response (AID 488931). The conditions noted are these: Rattus norvegicus. Format: functional.
Data set [6] can be described thus: Luminescence Cell-Based Dose Retest to Confirm Inhibitors of Cancer Stem Cells. [Related pubchem assays (depositor defined):AID2717, AID2721]. Format: functional. The conditions noted are these: Homo sapiens.
Data set [7] can be described thus: viability loss of HMLE_sh_eGFP cells – cell-based, luminescence, counter-screen for HMLE_sh_ECad selective toxicity project, dose response (AID 463074).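 Further: HMLE human mammary epithelial cells expressing control shRNA against eGFP.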 Format: functional, Homo sapiens.
The subject of data set [8] is INS1. As to the kind of experiment: INS-1E survival protection against cytokine death – cell-based, luminescence, retest, dose response (AID 449756).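 Further: cell death triggered by IL-1 beta plus TNF-alpha plus IFN-gamma mixture; protective hits raise ATP signal compared with cytokine alone wells.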 Format: functional. The conditions noted are these: Rattus norvegicus.
A further data set relates to HEK293. Description: cells. Format: functional, cell-based. The conditions noted are these: Homo sapiens.
The target of data set [9] is Nuclear receptor subfamily 0 group B member 1 (Homo sapiens, UniProt P51843). As to the kind of experiment: Luminescence-based cell-based high throughput dose response assay for inhibitors of the orphan nuclear receptor subfamily 0, group B, member 1 (DAX1; NR0B1). [Related pubchem assays (depositor defined):AID504766, AID504790]. Format: functional.
In data set [10] the target is T2, Voltage-gated N-type calcium channel alpha-1B subunit/Amyloid beta A4 precursor protein-binding family A member 1 (Homo sapiens, UniProt Q00975+Q02410). Format: protein assay.
For data set [11], the target named is T2, Voltage-gated N-type calcium channel alpha-1B subunit/Amyloid beta A4 precursor protein-binding family A member 1. Format: protein assay. This is another data set of the same source.
Data set [12] has as its target T3, Apoptotic protease-activating factor 1 (Homo sapiens, UniProt O14727).
T3 sequence (O14727 whole entry): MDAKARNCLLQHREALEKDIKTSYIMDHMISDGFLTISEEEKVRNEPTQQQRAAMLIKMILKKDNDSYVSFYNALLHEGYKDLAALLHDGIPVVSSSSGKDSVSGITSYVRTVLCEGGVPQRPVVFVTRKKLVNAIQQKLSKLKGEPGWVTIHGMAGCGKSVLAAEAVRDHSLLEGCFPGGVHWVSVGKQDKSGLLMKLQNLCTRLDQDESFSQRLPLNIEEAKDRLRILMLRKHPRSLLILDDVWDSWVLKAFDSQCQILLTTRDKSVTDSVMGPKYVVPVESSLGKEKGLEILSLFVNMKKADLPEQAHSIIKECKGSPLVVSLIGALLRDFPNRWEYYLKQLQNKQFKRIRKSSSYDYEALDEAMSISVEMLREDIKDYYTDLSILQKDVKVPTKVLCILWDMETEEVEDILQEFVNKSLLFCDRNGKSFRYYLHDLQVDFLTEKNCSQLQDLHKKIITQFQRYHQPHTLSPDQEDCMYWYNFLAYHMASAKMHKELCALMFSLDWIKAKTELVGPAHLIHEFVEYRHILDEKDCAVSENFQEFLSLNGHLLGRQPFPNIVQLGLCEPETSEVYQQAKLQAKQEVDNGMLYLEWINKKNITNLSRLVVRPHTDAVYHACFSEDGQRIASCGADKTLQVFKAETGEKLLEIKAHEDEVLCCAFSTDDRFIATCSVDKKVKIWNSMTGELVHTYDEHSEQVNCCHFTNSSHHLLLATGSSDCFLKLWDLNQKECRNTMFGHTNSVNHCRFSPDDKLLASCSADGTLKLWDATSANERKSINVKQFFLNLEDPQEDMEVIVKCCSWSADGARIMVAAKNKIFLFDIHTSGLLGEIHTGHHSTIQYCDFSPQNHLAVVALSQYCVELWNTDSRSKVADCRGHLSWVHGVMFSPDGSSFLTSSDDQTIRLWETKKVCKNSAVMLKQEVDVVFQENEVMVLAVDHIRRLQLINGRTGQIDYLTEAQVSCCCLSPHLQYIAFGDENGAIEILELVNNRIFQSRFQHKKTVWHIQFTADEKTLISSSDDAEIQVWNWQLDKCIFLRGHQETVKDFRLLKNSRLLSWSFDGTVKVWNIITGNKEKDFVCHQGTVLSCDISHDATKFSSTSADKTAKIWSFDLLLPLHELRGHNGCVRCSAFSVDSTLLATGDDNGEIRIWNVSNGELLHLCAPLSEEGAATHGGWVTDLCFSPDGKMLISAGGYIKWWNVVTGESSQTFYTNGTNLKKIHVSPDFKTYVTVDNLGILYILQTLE
As to the kind of experiment: activation of Apaf-1 mediated apoptosis – fluorescent, uHTS hits, dose response (AID 588554). Format: functional.

For data set [13], the target named is Beta-adrenergic receptor kinase 1 (Homo sapiens, UniProt P25098). Description: aptamer displacement from bead-bound GRK2 – biochemical, cherry pick 1, bead flow cytometry, dose response (AID 504500). (In general: Flow cytometry measures light scatter and fluorescence of single cells or particles in a stream.)

The source made the active and inactive calls. A value given as a limit tells only on which side of the number the result lay.

T2 sequence (Q00975 whole entry): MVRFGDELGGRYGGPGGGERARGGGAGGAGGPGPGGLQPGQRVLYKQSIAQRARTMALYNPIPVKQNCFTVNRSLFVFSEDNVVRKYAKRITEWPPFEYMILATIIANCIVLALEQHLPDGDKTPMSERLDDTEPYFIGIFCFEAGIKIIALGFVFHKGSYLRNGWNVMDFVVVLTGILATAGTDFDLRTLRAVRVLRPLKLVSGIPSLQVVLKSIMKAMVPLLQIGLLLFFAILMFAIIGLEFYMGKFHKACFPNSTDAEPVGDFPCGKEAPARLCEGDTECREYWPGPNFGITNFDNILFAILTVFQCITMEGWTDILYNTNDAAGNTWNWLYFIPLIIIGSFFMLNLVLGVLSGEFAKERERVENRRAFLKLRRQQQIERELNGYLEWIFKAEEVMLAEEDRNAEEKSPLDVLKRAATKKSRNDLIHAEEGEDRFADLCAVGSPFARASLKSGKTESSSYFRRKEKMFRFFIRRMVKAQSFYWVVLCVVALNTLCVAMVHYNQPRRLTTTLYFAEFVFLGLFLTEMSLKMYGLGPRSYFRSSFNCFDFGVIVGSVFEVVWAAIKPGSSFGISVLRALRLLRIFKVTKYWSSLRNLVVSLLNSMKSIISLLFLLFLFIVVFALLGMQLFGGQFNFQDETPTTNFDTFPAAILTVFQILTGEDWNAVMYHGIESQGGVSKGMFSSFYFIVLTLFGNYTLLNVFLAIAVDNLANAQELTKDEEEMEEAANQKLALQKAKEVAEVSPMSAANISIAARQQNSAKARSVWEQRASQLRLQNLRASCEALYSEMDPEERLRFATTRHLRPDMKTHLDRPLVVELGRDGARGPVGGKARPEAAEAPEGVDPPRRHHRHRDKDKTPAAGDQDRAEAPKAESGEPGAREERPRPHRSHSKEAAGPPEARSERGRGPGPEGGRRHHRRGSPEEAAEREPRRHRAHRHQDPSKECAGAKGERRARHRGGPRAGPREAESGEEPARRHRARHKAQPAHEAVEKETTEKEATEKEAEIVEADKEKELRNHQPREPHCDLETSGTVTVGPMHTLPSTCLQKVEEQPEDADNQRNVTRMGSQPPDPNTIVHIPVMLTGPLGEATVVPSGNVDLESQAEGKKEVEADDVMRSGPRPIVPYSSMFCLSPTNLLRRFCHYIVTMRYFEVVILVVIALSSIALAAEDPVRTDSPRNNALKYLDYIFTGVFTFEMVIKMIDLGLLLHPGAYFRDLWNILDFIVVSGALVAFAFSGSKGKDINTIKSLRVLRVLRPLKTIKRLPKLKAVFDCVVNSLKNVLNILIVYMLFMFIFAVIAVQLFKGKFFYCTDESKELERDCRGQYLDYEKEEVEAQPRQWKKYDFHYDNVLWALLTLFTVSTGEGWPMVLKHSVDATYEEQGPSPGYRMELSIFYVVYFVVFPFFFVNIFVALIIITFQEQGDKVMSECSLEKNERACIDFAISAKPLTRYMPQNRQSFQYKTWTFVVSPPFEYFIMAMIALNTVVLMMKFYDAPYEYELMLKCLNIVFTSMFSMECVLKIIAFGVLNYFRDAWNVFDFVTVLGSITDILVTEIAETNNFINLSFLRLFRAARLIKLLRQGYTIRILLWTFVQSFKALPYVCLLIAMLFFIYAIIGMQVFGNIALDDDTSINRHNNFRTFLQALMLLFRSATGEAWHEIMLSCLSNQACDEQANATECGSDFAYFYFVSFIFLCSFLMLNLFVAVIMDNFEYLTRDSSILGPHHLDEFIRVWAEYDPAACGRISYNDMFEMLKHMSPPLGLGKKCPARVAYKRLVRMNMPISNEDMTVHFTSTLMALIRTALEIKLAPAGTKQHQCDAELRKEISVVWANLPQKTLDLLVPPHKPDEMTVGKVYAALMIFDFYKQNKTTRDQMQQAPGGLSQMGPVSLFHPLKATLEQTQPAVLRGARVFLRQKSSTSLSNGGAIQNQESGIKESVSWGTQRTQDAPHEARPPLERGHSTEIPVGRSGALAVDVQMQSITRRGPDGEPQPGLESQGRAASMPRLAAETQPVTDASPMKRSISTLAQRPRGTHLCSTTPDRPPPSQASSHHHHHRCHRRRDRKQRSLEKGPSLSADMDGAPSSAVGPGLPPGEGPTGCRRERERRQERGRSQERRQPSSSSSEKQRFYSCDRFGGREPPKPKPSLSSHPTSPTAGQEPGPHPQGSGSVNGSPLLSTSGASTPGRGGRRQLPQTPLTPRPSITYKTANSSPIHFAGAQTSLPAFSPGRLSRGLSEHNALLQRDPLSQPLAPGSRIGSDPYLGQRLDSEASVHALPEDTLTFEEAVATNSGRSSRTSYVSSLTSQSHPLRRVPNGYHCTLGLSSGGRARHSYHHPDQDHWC
T2 sequence (Q02410 whole entry): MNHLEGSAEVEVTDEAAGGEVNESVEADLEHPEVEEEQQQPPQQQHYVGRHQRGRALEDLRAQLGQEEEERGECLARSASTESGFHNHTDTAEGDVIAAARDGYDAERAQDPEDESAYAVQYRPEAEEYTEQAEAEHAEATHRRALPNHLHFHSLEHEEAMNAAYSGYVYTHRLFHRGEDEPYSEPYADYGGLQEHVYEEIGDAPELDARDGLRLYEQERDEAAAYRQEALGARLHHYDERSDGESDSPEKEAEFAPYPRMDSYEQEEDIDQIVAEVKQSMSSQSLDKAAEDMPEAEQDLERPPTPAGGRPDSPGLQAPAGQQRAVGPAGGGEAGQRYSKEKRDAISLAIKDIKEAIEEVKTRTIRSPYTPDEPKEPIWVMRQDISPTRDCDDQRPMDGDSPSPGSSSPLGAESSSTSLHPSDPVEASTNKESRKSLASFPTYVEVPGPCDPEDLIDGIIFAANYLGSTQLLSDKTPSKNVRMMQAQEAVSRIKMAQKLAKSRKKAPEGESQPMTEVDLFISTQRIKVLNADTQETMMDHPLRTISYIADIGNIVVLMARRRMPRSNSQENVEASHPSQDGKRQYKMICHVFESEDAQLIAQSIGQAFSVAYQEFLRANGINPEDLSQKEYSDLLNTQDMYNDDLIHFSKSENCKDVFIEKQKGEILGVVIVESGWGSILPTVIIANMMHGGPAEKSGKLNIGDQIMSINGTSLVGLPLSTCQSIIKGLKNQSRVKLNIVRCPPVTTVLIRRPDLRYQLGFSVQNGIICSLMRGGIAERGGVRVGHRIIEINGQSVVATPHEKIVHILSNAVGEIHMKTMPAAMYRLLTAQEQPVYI
Sequence of Cytochrome P450 2C19 (P33261 whole entry): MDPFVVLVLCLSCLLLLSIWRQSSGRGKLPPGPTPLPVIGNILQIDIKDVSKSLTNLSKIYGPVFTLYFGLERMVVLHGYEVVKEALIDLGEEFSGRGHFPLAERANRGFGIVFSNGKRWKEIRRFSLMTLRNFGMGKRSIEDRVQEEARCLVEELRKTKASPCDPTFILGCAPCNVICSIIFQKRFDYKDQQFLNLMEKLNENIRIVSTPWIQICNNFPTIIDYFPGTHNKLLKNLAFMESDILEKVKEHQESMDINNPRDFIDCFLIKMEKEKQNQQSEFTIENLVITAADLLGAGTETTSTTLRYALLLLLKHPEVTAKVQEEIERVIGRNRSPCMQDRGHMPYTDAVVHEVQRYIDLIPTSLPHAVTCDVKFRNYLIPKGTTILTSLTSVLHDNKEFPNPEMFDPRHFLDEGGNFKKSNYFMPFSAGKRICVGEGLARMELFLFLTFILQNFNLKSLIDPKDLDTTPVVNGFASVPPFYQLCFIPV
Sequence of Cytochrome P450 2D6 (P10635 whole entry): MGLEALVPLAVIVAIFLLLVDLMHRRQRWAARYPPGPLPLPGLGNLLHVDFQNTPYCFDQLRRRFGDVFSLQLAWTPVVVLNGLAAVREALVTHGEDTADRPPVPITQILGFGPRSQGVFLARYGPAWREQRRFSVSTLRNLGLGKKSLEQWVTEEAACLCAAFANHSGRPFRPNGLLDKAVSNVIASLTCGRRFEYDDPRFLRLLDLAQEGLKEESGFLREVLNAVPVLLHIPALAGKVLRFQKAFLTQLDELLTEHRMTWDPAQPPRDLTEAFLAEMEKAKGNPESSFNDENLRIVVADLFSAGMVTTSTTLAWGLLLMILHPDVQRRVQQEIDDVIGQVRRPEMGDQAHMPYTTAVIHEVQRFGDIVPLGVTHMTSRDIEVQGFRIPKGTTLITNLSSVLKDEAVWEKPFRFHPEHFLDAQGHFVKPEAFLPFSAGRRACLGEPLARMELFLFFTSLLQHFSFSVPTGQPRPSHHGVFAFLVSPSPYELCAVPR
Sequence of CAAX prenyl protease 2 (Q9Y256 whole entry): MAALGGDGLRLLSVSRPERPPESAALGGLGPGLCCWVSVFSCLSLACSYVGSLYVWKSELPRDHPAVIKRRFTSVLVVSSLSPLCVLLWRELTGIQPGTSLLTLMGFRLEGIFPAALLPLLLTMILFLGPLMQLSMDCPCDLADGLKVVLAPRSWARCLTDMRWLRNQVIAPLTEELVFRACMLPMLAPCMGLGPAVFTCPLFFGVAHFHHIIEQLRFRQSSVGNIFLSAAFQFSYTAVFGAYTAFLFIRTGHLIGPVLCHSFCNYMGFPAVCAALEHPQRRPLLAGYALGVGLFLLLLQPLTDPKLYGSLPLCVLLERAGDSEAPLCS
Sequence of Nuclear receptor subfamily 0 group B member 1 (P51843 whole entry): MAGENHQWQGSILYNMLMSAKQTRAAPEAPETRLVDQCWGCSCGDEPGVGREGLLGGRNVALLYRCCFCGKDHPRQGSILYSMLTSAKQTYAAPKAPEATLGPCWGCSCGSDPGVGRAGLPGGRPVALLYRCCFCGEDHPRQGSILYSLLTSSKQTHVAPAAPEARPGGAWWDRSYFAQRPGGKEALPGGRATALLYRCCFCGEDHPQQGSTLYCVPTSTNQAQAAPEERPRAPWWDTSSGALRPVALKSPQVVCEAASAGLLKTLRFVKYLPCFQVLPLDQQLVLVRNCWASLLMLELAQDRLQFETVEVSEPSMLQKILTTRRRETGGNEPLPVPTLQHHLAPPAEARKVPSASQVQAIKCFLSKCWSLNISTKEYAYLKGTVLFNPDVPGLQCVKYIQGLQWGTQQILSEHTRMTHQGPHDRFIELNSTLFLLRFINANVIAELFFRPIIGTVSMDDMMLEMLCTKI

Broadly, the EC50 is the concentration needed to bring the measured effect to its halfway point. One may read the AC50 as the concentration giving half of the maximal activity seen. Take `COc1ccc(/C(O)=C/C=N/c2cccc(C)n2)cc1OC`: the concentration for a half-maximal effect (EC50) was 0.146 µM (active) in [1], 0.122 µM (active) in [2] and 48.3 µM (active) in the data set on H4. In addition, the half-maximal activity concentration (AC50) with HeLa is 50.8 µM (active).

Consider `N#Cc1cccc(NC(=O)N2CC[C@@]3(CCCN(C(=O)Oc4ccccc4)C3)C2)c1`, for which the AC50 result is “inconclusive” at Cytochrome P450 2C19; 2.51 µM (inconclusive) at Cytochrome P450 3A4; “inconclusive” on Cytochrome P450 2D6; “inconclusive” at Cytochrome P450 1A2; “inconclusive” at Cytochrome P450 2C9.

As to `COc1cccc(/C=C/C(=O)OCC(=O)Nc2ccc(Cl)c(S(=O)(=O)N(C)C)c2)c1OC`, on CAAX prenyl protease 2, the AC50 is 20.9 µM (active).

Take `C[C@@H]1CN([C@@H](C)CO)C(=O)c2cccc(NC(=O)Nc3ccc(F)cc3)c2O[C@H]1CN(C)S(=O)(=O)c1ccc(F)cc1`: the results for the AC50 in the data set with INS1 [3], in the data set on INS1 [4] and with INS1 [5] were 72 µM (active), > 195 µM (inactive) and 63.3 µM (active), respectively.

For the compound `C=CC[n+]1c(-c2ccc(OCC)cc2)csc1NNC(=O)Nc1ccccc1`, the AC50 in data set [6] was 88.4 µM (active); in data set [7], 24.7 µM (active); with INS1 [8], 6.63 µM (active).

Broadly, the IC50 is the concentration at which inhibition is half-maximal. Consider `CCOc1ccc2nc(NS(=O)(=O)Cc3ccccc3)sc2c1`, for which the IC50 (in the data set on HEK293; in data set [9]) was > 67.5 µM (inactive) in each case.

On to `O=C(CCS(=O)(=O)c1ccc(Br)cc1)NCc1ccco1`, for which the IC50 was 12.1 µM (active) in data set [10] and > 50 µM (inactive) in data set [11]. Further, the EC50 in [12] was 23.4 µM (active).

On to `CCCC[N+](C)(C)CCC(=O)NC(C)(C)CS(=O)(=O)[O-]`, for which the half-maximal effective concentration (EC50) in [13] is 4.53 µM (active).
